Assay results reported in the NIST ThermoML archive (doi:10.1021/je049706p).
Numbers after ± are expanded uncertainties.

Assay: refractive index (Na D-line) (dimensionless)
Details: 293.1 K; 101.33 kPa; Liquid; Standard Abbe refractometry

- refractive index: 1.4686 ± 0.0012
Structure (SMILES): CN1CCCC1=O [N-methylpyrrolidone]
